One data set has as its system E. faecalis (ATCC 29122). As to the kind of experiment: Bacterial growth inhibition assay. In kind it is cell-based, Enterococcus faecialis. On the set-up: MIC (Gentamycin, unit not given): unit not given beside the values. The protocol:
(§1) The prepared samples were tested for in vitro antimicrobial activity against E. faecalis, E. coli, P. aeruginosa, S. aureus, Streptococcus agalactiae and S. epidermis using gentamycin as a reference compound.
(§2) To determine and quantify antimicrobial activity, a bacteria growth inhibition assay in liquid media was executed. Compounds 2–3, 4, 8–10, 13–14, 16, 18, and 20 were tested against Staphylococcus aureus (ATCC 25923), Escherichia coli (ATCC 259233), Enterococcus faecialis (ATCC 29122), Pseudomonas aeruginosa (ATCC 27853) and Streptococcus agalactiae (ATCC 12386); all strains from LGC Standards (Teddington, UK). S. aureus, E. coli, and P. aeruginosa were grown in Muller Hinton broth (275730, Becton, Franklin Lakes, NJ, USA). E. faecalis and S. agalactiae were cultured in brain hearth infusion broth (53286, Sigma, St Louise, MO, USA). Fresh bacterial colonies were transferred in the respective medium and incubated at 37 °C overnight. The bacterial cultures were diluted to a culture density representing the log phase and µL/well were pipetted into a 96-well microtiter plate (734–2097, NunclonTM, Thermo Scientific, Waltham, MA, USA). The final cell density was 1500–15.000 colony forming units/well. The compound was diluted in 2% (v/v) DMSO in ddH2O, providing a final assay concentration of 50% of the prepared sample, since 50 µL of sample in DMSO/water were added to 50 µL bacterial culture. After adding the samples to the plates, they were incubated overnight at 37 °C and the growth was determined by measuring the optical density at λ = 600 nm (OD600) with a 1420 Multilabel Counter VICTOR3TM (Perkin Elmer, Waltham, MA, USA). A water sample was used as a reference control, growth medium without bacteria was used as a negative control and dilution series of gentamycin (A2712, Merck, Darmstadt, DE) from 32 to 0.01 µg/mL was used as positive control and visually inspected for bacterial growth. The positive control was used as a system suitability test and the results of the antimicrobial assay were only considered valid when positive control was passed. The final concentration of DMSO in the assays was ≤2% (v/v) and was known to have no effect in the tested bacteria. The data was processed using GraphPad Prism 8.

Data set [1] deals with P. aeruginosa (ATCC 27853). As to the kind of experiment: Bacterial growth inhibition assay. The settings on record: reference compound. It counts as cell-based, Pseudomonas aeruginosa. On the set-up: unit not given beside the values. The protocol:
as §1
(§3) To determine and quantify antimicrobial activity, a bacteria growth inhibition assay in liquid media was executed. Compounds 2–3, 4, 8–10, 13–14, 16, 18, and 20 were tested against Staphylococcus aureus (ATCC 25923), Escherichia coli (ATCC 259233), Enterococcus faecialis (ATCC 29122), Pseudomonas aeruginosa (ATCC 27853) and Streptococcus agalactiae (ATCC 12386); all strains from LGC Standards (Teddington, UK). S. aureus, E. coli, and P. aeruginosa were grown in Muller Hinton broth (275730, Becton, Franklin Lakes, NJ, USA). E. faecalis and S. agalactiae were cultured in brain hearth infusion broth (53286, Sigma, St Louise, MO, USA). Fresh bacterial colonies were transferred in the respective medium and incubated at 37 °C overnight. The bacterial cultures were diluted to a culture density representing the log phase and µL/well were pipetted into a 96-well microtiter plate (734–2097, NunclonTM, Thermo Scientific, Waltham, MA, USA). […] After adding the samples to the plates, they were incubated overnight at 37 °C and the growth was determined by measuring the optical density at λ = 600 nm (OD600) with a 1420 Multilabel Counter VICTOR3TM (Perkin Elmer, Waltham, MA, USA). […]

The test system of data set [2] is Streptococcus agalactiae (ATCC 12386). The experiment in a line: Bacterial growth inhibition assay. It counts as cell-based. Set-up: MIC (Gentamycin, unit not given): unit not given beside the values. The following applies: for MIC: ATCC12386. The protocol:
as §1, §2

Another data set has as its system S. aureus (ATCC 25923). As to the kind of experiment: Bacterial growth inhibition assay. It counts as cell-based, Staphylococcus aureus. Set-up: MIC (Gentamycin, unit not given): unit not given beside the values. The following applies: for MIC: Staphylococcus aureus, ATCC25923. The protocol: as §1, §2
The test system of the next data set is E. coli (ATCC 259233). The experiment in a line: Bacterial growth inhibition assay. The settings on record: for MIC: Escherichia coli, ATCC259233. It counts as cell-based, Escherichia coli. On the set-up: MIC (Gentamycin, unit not given): unit not given beside the values. On the procedure: as §1
as §2, with “The final concentration of DMSO in the assays was ≤2% (v/v) and was known to have no effect in the tested bacteria. The data was processed using GraphPad Prism 8.” left out

Data set [3] relates to MDA-MB-231 (human breast adenocarcinoma). As to the kind of experiment: Antiproliferative assay (resazurin). In kind it is cell-based. The settings on record: Homo sapiens, MDA-MB-231; 72 h compound incubation; mean ± sem, two separate experiments. On the procedure: (§4) Compounds tested in the antiproliferative assays were tested in 11 dilution points (0.02 µM–40 µM or 0.04 µM–80 µM). […] HCT116 cells were maintained in McCoy’s 5A media (Life Technologies, CA, USA), MDA-MB-231 cells were cultured in DMEM media (Life Technologies) with 10 mM HEPES (Life Technologies), whilst PC-3 cells were maintained in RPMI media (Life Technologies). All media were supplemented with 10% heat-inactivated fetal bovine serum (Australian source; Corning, CA, USA) and all cells were incubated at 37 °C in a humidified incubator with 5% CO2. Cells were seeded in 384-well plates (Greiner Bio-One, NC, USA) using the respective complete media. After 24 h cell seeding, compounds were added and antiproliferative activity was determined using the resazurin assay after 72 h compound incubation. Briefly, cells were incubated with 60 µM resazurin (Cayman, MI, USA) for 6 h at 37 °C and fluorescence signals were measured using a microplate reader (EnSight, PerkinElmer, Waltham, MA, USA).
Background: The colour change of resazurin is a common sign of viable cells or microbes.

Data set [4] concerns PC-3 (human prostate cancer). As to the kind of experiment: Antiproliferative assay (resazurin). It counts as cell-based. The following applies: Homo sapiens; 72 h compound incubation; mean ± sem, two separate experiments. The protocol:
as §4

The test system of data set [5] is HCT116 (human colon cancer). As to the kind of experiment: Antiproliferative assay (resazurin). In kind it is cell-based. The following applies: Homo sapiens, HCT-116; 72 h compound incubation; mean ± sem, two separate experiments. On the procedure: as §4
Data set [6] can be described thus: Cytotoxicity assay (resazurin-based viability). In kind it is cell-based. The settings on record: human, HEK293 cells, mean ± standard deviation, two separate experiments. On the procedure:
Fluorescence was measured using an EnSight plate reader (PerkinElmer, Waltham, MA, USA).

The test system of data set [7] is E. faecalis, E. coli, P. aeruginosa, S. aureus, Streptococcus agalactiae and S. epidermis. The experiment in a line: Antimicrobial and biofilm inhibition assays, whole panel of tested strains. The settings on record: five bacterial strains and biofilm formation; tested up to 100 µM. It counts as cell-based. On the procedure: as §1, §3
Data set [8] deals with Plasmodium falciparum 3D7 strain. As to the kind of experiment: Antiplasmodial imaging assay. It counts as cell-based. The following applies: P. falciparum 3D7, 72 h, mean ± standard deviation, two separate experiments; for IC50: Plasmodium falciparum. On the procedure: (§5) Compounds tested in the antiproliferative assays were tested in 11 dilution points (0.02 µM–40 µM or 0.04 µM–80 µM).
(§6) Antiplasmodial activity was determined as previously described by Duffy and Avery. […] After incubation, plates were stained with 4’,6-diamidino-2-phenylindole (DAPI) in a permeabilization buffer for 5 h at rt in the dark. Plates were imaged on the Opera confocal microplate image reader (PerkinElmer).

The nature of data set [9]: Antiplasmodial imaging assay. It counts as cell-based, Plasmodium falciparum. The following applies: human (HEK293) and Plasmodium falciparum (3D7), HEK293 cells versus Plasmodium falciparum 3D7 culture; HEK293 vs 3D7; read-out: SI (selectivity index = cytotoxicity in HEK293/activity in 3D7). The protocol:
as §5, §6

The subject of data set [10] is S. epidermis (ATCC 35984). As to the kind of experiment: Biofilm formation inhibition assay. The settings on record: inhibition of biofilm formation. In kind it is cell-based, Staphylococcus epidermidis. The protocol: as §1
For testing the inhibition of biofilm formation, the biofilm-producing Staphylococcus epidermidis (ATCC 35984) was grown in Tryptic Soy Broth (TSB, 105459, Merck, Kenilworth, NJ, USA) overnight at 37 °C. The overnight culture was diluted in fresh medium with 1% glucose (D9434, Sigma) before being transferred to a 96-well microtiter plate; 50 µL/well were incubated overnight with 50 µL of the test compound dissolved in 2% (v/v) DMSO aq. added in duplicates. The bacterial culture was removed from the plate and the plate was washed with tap water. The biofilm was fixed at 65 °C for 1 h before 70 µL 0.1% crystal violet (115940, Millipore, Burlington, MA, USA) was added to the wells for 10 min of incubation and 70 µL of 70% ethanol was then added to each well and the plate incubated on a shaker for 5–10 min. Biofilm formation inhibition was assessed by the presence of violet color and measured at […] absorbance using a 1420 Multilabel Counter VICTOR3TM; 50 µL of a non-biofilm forming Staphylococcus haemolyticus (clinical isolate 8-7A, University Hospital of North Norway Tromsø, Norway) mixed in 50 µL autoclaved Milli-Q water was used as a control; 50 µL S. epidermidis mixed in 50 µL autoclaved Milli-Q water was used as the control for biofilm formation; and 50 µL TSB with 50 µL autoclaved Milli-Q water was used as a medium blank control.

In brackets after ≈: the same amount, converted by molar mass.

gentamycin [reference compound]: the “MIC (Gentamycin, unit not given)” value against E. faecalis (ATCC 29122) (reference compound) was 8; in data set [1] it was 0.25; in data set [2] (reference compound), 4; with S. aureus (ATCC 25923) (reference compound), 0.06; against E. coli (ATCC 259233) (reference compound), 0.13.

For the compound `COC1=CN(C)c2cccc3c2c1nc1ccccc13` [Compound 8b, 6-Methoxy-4-methyl-4H-pyrido[4,3,2-gh]phenanthridine], the IC50 in data set [3] was 0.814 ± 0.162 µM; in [4], 4.54 ± 0.361 µM; in data set [5], 0.871 ± 0.172 µM; in data set [8], 1.55 ± 0.027 µM. The same compound displayed a half-maximal inhibitory concentration (IC50) at 72 h in data set [6] of 5.057 ± 0.045 µM. For the same compound, the “activity against any of the tested strains” value in data set [7] is recorded as “complete loss of activity”. In addition, in [9], the selectivity ratio at 72 h amounted to 3.3.

`Cn1cc2c3ccccc3nc-2c2ccccc21` [Isocryptolepine (3a), isocryptolepine]: the IC50 turned out to be 0.695 ± 0.13 µM in data set [3], 1.821 ± 0.007 µM in data set [4], 0.667 ± 0.045 µM in data set [5] and 1.21 ± 0.084 µM in data set [8]. Besides, the minimum inhibitory concentration (MIC) against E. faecalis (ATCC 29122) (Enterococcus faecalis, ATCC29122) worked out at 100 µM (≈ 23.2 µg/mL); in data set [2], 100 µM (≈ 23.2 µg/mL); in the data set with S. aureus (ATCC 25923), 100 µM (≈ 23.2 µg/mL); with E. coli (ATCC 259233), 100 µM (≈ 23.2 µg/mL). The compound also gave an IC50 at 72 h in data set [6] of 2.07 ± 0.07 µM. The MBIC in data set [10] was 100 µM. For the same compound, the selectivity ratio at 72 h in data set [9] was 1.7.

`c1ccc2c(c1)[nH]c1ccc3ncccc3c12` [Compound 9a, 7H-Pyrido[2,3-c]carbazole] returned a melting point of 204 to 205 °C. The IC50 in data set [3] is 21.5 µM. In data set [4], this compound had a half-maximal inhibitory concentration (IC50) of 17.8 µM. This compound also yielded an IC50 in data set [5] of 20 µM. Besides, the IC50 at 72 h in [6] is above 80 µM. The MBIC in data set [10] stood at 100 µM. For the same compound, in data set [2], the MIC was determined as 100 µM (≈ 21.8 µg/mL). Moreover, in data set [8], the “3D7 IC50” value is reported as “little to no activity” and the IC50 turned out to be 6.825 ± 0.061 µM. Besides, the selectivity ratio at 72 h in [9] is above 11.7.

For `Fc1ccc2[nH]c3ccc4ncccc4c3c2c1` [Compound 9b, 10-Fluoro-7H-pyrido[2,3-c]carbazole], the melting point lay in the range of 256 to 257 °C. Also, the MBIC in data set [10] is 100 µM.

Consider `COc1cnc2cccc3c2c1Nc1ccccc1-3` [Compound 4b, 6-methoxy-7H-pyrido[4,3,2-gh]phenanthridine], for which the IC50 in data set [3] was found to be 1 ± 0.297 µM; in data set [4], 0.024 ± 0.003 µM; in data set [5], 0.166 ± 0.016 µM; in data set [8] it was 0.866 ± 0.002 µM. In data set [6], this compound showed an IC50 at 72 h of 3.657 ± 0.002 µM. Besides, the results for the minimum inhibitory concentration (MIC) (in [2]; against S. aureus (ATCC 25923); against E. coli (ATCC 259233)) were 75 µM (≈ 18.6 µg/mL), 75 µM (≈ 18.6 µg/mL) and 50 µM (≈ 12.4 µg/mL), respectively. Also, the selectivity ratio at 72 h in [9] was 4.2.

What is called IC50 is the point on the concentration scale where inhibition reaches its midpoint. In general, MIC refers to the lowest concentration found to suppress growth. By melting point is commonly meant the temperature of the solid-liquid transition.

These data come from PMC8198049, “Synthesis and Evaluation of the Tetracyclic Ring-System of Isocryptolepine and Regioisomers for Antimalarial, Antiproliferative and Antimicrobial Activities” (Molecules, 2021).
